Read-outs that look alike come from different tables or passages of the source. Each block holds one compound with its values, some of them ahead of it.
Experiments:
[1] = ref Popiolek et al., 2021; cited from earlier work
APAP-induced ALI rats = experiment: Biochemical profile and tissue microscopy in APAP-induced ALI rats; type: in vivo, Sprague-Dawley rats
CYP3A1/2 = experiment: Immunoblot of hepatic microsomes, CYP3A1/2; type: in vivo, rat; details: RVT rats
[2] = Rat plasma protein binding of tofacitinib; type: in vitro ADME; details: for fraction unbound at 5 µg/mL: Sprague-Dawley, rat, plasma, Plasma protein binding
[3] = intestinal microsomes, CON, RVT, ALI
[4] = ref Bannwarth et al., 2013, Dowty et al., 2014; cited from earlier work
[5] = In vitro metabolism of tofacitinib; type: in vitro ADME, rat; details: hepatic microsomes
[6] = iv 10 mg/kg
in vivo = details: Sprague-Dawley, rat, plasma, iv, 10 mg/kg, CON rats (control)
[7] = RVT 50 mg/kg ip, ALI-RVT vs ALI rats, plasma
[8] = oral 20 mg/kg, ALI rats (APAP 400 mg/kg ip)
[9] = oral 20 mg/kg, ALI-RVT rats (RVT 50 mg/kg ip 1.5 h before APAP)
[10] = oral 20 mg/kg, ALI-RVT vs ALI rats
[11] = oral 20 mg/kg, CON rats (control)
[12] = oral 20 mg/kg, RVT rats (RVT 50 mg/kg ip)
[13] = ALI-RVT rats (RVT 50 mg/kg ip 1.5 h before APAP)

SMILES: CC(=O)Nc1ccc(O)cc1 [APAP, Acetaminophen]
- Safe dose [1]: up to 2,000 mg per day

- CYP3A expression following RVT administration (CYP3A1/2): slightly decreased
SMILES: Oc1ccc(/C=C/c2cc(O)cc(O)c2)cc1 [RVT, Resveratrol]
- Liver and kidney histology (APAP-induced ALI rats; RVT 50 mg/kg ip, ALI-RVT rats): alleviated tissue damage
- Decrease in GOT (APAP-induced ALI rats; [7]): 35.1%
- Increase in total protein (APAP-induced ALI rats; [7]): 4.50%
- Glutamate oxaloacetate transaminase levels (APAP-induced ALI rats; RVT administration in ALI rats): normalized

- recovery at 30 min, 5 µg/mL ([2]; PBS in Nanosep 10 K centrifugal filter unit (no plasma), pH 7.4): 99.7 ± 2.51%
- fraction unbound at 5 µg/mL ([2]; plasma of ALI rats): 0.358
- fraction unbound at 5 µg/mL ([2]; plasma of CON rats): 0.363
- fraction unbound at 5 µg/mL ([2]; plasma of RVT rats): 0.349
- Vmax, Km, and CLint, comparison across the four groups [3]: no significant differences
- CLint lower than in CON rats ([5]; ALI rats): 69.6%
- CLint as % of CON values ([5]; ALI-RVT rats): 93.1%
- Km values, comparison across all groups ([5]; CON, RVT, ALI, ALI-RVT): remained consistent
- F values, comparison across the four groups (CON, RVT, ALI, ALI-RVT rats): similar
- Ae0-24 h (drug excreted unchanged in urine for 24 h) [8]: 3.04 ± 1.74 % of dose
- GI24 h (drug remaining in the gastrointestinal tract at 24 h) [8]: 0.743 ± 0.917 % of dose
- Decrease in CLR (oral 20 mg/kg, ALI vs CON rats): 76.4%
- Increase in AUC (oral 20 mg/kg, ALI vs CON rats, 20 mg/kg): 181%
- Ae0-24 h (drug excreted unchanged in urine for 24 h) [9]: 6.41 ± 1.86 % of dose
- GI24 h (drug remaining in the gastrointestinal tract at 24 h) [9]: 0.467 ± 0.243 % of dose
- Decrease in AUC [10]: 41.4%
- Increase in CLR [10]: 211%
- Ae0-24 h (drug excreted unchanged in urine for 24 h) [11]: 4.72 ± 2.03 % of dose
- GI24 h (drug remaining in the gastrointestinal tract at 24 h) [11]: 0.791 ± 1.06 % of dose
- Ae0-24 h (drug excreted unchanged in urine for 24 h) [12]: 3.96 ± 2.11 % of dose
- GI24 h (drug remaining in the gastrointestinal tract at 24 h) [12]: 0.295 ± 0.0618 % of dose
- GI24 h values (oral, both CON and ALI rats): less than 0.791 % of the oral dose
- Ae0-24 h (drug excreted unchanged in urine for 24 h) ([6]; ALI rats (APAP 400 mg/kg ip)): 4.26 ± 2.87 % of dose
- GI24 h (drug remaining in the gastrointestinal tract at 24 h) ([6]; ALI rats (APAP 400 mg/kg ip)): 0.134 ± 0.0339 % of dose
- Increase in AUC ([6]; ALI vs CON rats): 207%
- Increase in terminal half-life ([6]; ALI vs CON rats): 113%
- Reduction in CL ([6]; ALI vs CON rats): 64.7%
- Reduction in CLNR ([6]; ALI vs CON rats): 66.1%
- Ae0-24 h (drug excreted unchanged in urine for 24 h) [6, 13]: 9.25 ± 3.62 % of dose
- GI24 h (drug remaining in the gastrointestinal tract at 24 h) [6, 13]: 0.115 ± 0.0493 % of dose
- Increase in Ae0-24 h ([6]; ALI-RVT vs ALI rats): 117%
- Increase in CL ([6]; ALI-RVT vs ALI rats): 142%
- Increase in CLNR ([6]; ALI-RVT vs ALI rats): 141%
- Increase in CLR ([6]; ALI-RVT vs ALI rats): 398%
- Reduction in AUC ([6]; ALI-RVT vs ALI rats): 62.0%
- Shorter terminal half-life ([6]; ALI-RVT vs ALI rats): 38.0%
- Ae0-24 h (drug excreted unchanged in urine for 24 h) ([6]; CON rats (control)): 5.30 ± 1.91 % of dose
- GI24 h (drug remaining in the gastrointestinal tract at 24 h) ([6]; CON rats (control)): 0.108 ± 0.0444 % of dose
- Ae0-24 h (drug excreted unchanged in urine for 24 h) ([6]; RVT rats (RVT 50 mg/kg ip)): 7.31 ± 3.12 % of dose
- GI24 h (drug remaining in the gastrointestinal tract at 24 h) ([6]; RVT rats (RVT 50 mg/kg ip)): 0.147 ± 0.00805 % of dose
- AUC (in vivo): 4070 ng·h/mL
SMILES: C[C@@H]1CCN(C(=O)CC#N)C[C@@H]1N(C)c1ncnc2[nH]ccc12 [tofacitinib, Tofacitinib]
- Fraction of the oral dose metabolized by hepatic CYP3A4 and CYP2C19 [4]: Approximately 70%
